Test results taken from the CheMixHub viscosity set.

Test: xn = mol fraction of the nth substance listed

C1CC[NH2+]C1.CCCCCCCC(=O)[O-] + CCO
viscosity [mPa·s], 101 kPa
Conditions	x1 = 0.1638	x1 = 0.3038	x1 = 0.4308	x1 = 0.5046	x1 = 0.5837	x1 = 0.7453	x1 = 0.838	x1 = 0.9223
293.15 K	3.7	8.2	14	17.06	23.1	36.6	47.3	58.2
298.15 K	3.85	7.02	12.99	16.3	21.3	34.08	44.23	52.4
303.15 K	3	5.7	10.5	13.39	17.6	29.14	36.3	42.7
308.15 K	2.9	7.3	11.21	14.5	18.1	25.4	31.3	36.4
313.15 K	2.7	6.8	9.8	11.79	15	22	26.8	30.3

O=S1(=O)CCCC1 + CCO
viscosity [mPa·s], 101 kPa
Conditions	293.15 K	298.15 K	303.15 K	308.15 K	313.15 K	323.15 K
x1 = 0.06211	1.21	1.103	1.006	–	0.845	0.714
x1 = 0.068	–	–	1.008	0.9247	0.8482	–
x1 = 0.1147	–	–	1.063	0.976	0.8945	–
x1 = 0.131	1.316	1.197	1.094	–	0.919	0.778
x1 = 0.2039	1.49	1.35	1.228	–	1.031	0.875
x1 = 0.2119	–	–	1.241	1.135	1.039	–
x1 = 0.271	–	–	1.38	1.264	1.155	–
x1 = 0.283	1.734	1.57	1.421	–	1.192	1.009
x1 = 0.3691	2.087	1.883	1.699	–	1.421	1.202
x1 = 0.374	–	–	1.696	1.546	1.417	–
x1 = 0.4622	2.558	2.292	2.09	–	1.734	1.467
x1 = 0.4742	–	–	2.116	1.922	1.755	–
x1 = 0.5688	3.306	2.96	2.668	–	2.207	1.857
x1 = 0.5738	–	–	2.691	2.436	2.216	–
x1 = 0.6865	4.608	4.075	3.682	–	3.001	2.511
x1 = 0.7403	–	–	4.239	3.82	3.446	–
x1 = 0.8141	6.959	6.153	5.503	–	4.423	3.632
x1 = 0.8574	–	–	6.141	5.47	4.899	–

Cc1cccc(C)c1 + CCOC(C)=O
viscosity [mPa·s], 101 kPa
Conditions	298.15 K	308.15 K
x2 = 0.048	0.568	0.515
x2 = 0.1498	0.541	0.492
x2 = 0.2498	0.518	0.472
x2 = 0.3493	0.498	0.454
x2 = 0.4469	0.481	0.439
x2 = 0.4972	0.473	0.432
x2 = 0.5494	0.466	0.425
x2 = 0.6495	0.454	0.414
x2 = 0.7511	0.444	0.404
x2 = 0.8509	0.436	0.396
x2 = 0.9461	0.43	0.39

O=S1(=O)CCCC1 + CCOC(C)=O
303.15 K, 101 kPa
Conditions	viscosity [mPa·s]
x1 = 0.8548	5.285
x1 = 0.9799	9.205

Nc1ccccc1Cl + CCOCCO
303.15 K, 101 kPa
Conditions	viscosity [mPa·s]
x1 = 0.0966	2.088
x1 = 0.1696	2.266
x1 = 0.2725	2.507
x1 = 0.3613	2.709
x1 = 0.4791	2.967
x1 = 0.5648	3.147
x1 = 0.68	3.372
x1 = 0.7804	3.544
x1 = 0.8884	3.696

O=S1(=O)CCCC1 + CCc1ccccc1
viscosity [mPa·s]
Conditions	101 kPa	101.3 kPa
303.15 K, x2 = 0.9106	0.7155	0.7155
313.15 K, x2 = 0.7254	0.9235	–
323.15 K, x2 = 0.7254	0.8125	0.8125
323.15 K, x2 = 0.8194	0.6653	0.6653

CCCCn1cc[n+](C)c1.F[B-](F)(F)F + CN1CCCC1=O
101 kPa
Conditions	viscosity [mPa·s]
298.15 K, x1 = 0.2779	9.05
298.15 K, x1 = 0.957	86.3
303.15 K, x1 = 0.2779	7.82
303.15 K, x1 = 0.3423	9.48
308.15 K, x1 = 0.4657	9.19
